Like-named read-outs stand apart in the source and are kept apart here.
Target: T1, LRRK2 (endogenous, HiBit tagged) (Homo sapiens, UniProt Q5S007)
T1 construct: endogenous in cells; host or cells: HEK293 cells with HiBit knock-in at the endogenous LRRK2 locus, stably expressing firefly luciferase
Test: Endogenous LRRK2 degradation assay, endogenous gene C-terminally HiBit-tagged in HEK293 cells (Nano-Glo Dual Luciferase)
Assay type: cell-based
In short: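 LRRK2-HiBit quantified via Nano-Glo Dual Luciferase in HEK293 knock-in cells co-expressing firefly luciferase, after 24 h exposure to compound (1 μM final top, 1:3, 11 points). Values normalised to DMSO median per plate and curve-fitted; Alamar Blue viability run alongside.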

[1] = endogenous HiBit-tagged LRRK2 in HEK293 cells, 24 hours treatment, read-out: **Endogenous WT Dmax (%)
[2] = endogenous HiBit-tagged LRRK2 in HEK293 cells, 24 hours treatment, read-out: *Endogenous WT DC50
[3] = endogenous HiBit-tagged LRRK2 in HEK293 cells, 24 hours treatment, read-out: Endogenous WT DC50
[4] = endogenous HiBit-tagged LRRK2 in HEK293 cells, 24 hours treatment, read-out: Endogenous WT Dmax

T1 sequence (Q5S007 whole entry): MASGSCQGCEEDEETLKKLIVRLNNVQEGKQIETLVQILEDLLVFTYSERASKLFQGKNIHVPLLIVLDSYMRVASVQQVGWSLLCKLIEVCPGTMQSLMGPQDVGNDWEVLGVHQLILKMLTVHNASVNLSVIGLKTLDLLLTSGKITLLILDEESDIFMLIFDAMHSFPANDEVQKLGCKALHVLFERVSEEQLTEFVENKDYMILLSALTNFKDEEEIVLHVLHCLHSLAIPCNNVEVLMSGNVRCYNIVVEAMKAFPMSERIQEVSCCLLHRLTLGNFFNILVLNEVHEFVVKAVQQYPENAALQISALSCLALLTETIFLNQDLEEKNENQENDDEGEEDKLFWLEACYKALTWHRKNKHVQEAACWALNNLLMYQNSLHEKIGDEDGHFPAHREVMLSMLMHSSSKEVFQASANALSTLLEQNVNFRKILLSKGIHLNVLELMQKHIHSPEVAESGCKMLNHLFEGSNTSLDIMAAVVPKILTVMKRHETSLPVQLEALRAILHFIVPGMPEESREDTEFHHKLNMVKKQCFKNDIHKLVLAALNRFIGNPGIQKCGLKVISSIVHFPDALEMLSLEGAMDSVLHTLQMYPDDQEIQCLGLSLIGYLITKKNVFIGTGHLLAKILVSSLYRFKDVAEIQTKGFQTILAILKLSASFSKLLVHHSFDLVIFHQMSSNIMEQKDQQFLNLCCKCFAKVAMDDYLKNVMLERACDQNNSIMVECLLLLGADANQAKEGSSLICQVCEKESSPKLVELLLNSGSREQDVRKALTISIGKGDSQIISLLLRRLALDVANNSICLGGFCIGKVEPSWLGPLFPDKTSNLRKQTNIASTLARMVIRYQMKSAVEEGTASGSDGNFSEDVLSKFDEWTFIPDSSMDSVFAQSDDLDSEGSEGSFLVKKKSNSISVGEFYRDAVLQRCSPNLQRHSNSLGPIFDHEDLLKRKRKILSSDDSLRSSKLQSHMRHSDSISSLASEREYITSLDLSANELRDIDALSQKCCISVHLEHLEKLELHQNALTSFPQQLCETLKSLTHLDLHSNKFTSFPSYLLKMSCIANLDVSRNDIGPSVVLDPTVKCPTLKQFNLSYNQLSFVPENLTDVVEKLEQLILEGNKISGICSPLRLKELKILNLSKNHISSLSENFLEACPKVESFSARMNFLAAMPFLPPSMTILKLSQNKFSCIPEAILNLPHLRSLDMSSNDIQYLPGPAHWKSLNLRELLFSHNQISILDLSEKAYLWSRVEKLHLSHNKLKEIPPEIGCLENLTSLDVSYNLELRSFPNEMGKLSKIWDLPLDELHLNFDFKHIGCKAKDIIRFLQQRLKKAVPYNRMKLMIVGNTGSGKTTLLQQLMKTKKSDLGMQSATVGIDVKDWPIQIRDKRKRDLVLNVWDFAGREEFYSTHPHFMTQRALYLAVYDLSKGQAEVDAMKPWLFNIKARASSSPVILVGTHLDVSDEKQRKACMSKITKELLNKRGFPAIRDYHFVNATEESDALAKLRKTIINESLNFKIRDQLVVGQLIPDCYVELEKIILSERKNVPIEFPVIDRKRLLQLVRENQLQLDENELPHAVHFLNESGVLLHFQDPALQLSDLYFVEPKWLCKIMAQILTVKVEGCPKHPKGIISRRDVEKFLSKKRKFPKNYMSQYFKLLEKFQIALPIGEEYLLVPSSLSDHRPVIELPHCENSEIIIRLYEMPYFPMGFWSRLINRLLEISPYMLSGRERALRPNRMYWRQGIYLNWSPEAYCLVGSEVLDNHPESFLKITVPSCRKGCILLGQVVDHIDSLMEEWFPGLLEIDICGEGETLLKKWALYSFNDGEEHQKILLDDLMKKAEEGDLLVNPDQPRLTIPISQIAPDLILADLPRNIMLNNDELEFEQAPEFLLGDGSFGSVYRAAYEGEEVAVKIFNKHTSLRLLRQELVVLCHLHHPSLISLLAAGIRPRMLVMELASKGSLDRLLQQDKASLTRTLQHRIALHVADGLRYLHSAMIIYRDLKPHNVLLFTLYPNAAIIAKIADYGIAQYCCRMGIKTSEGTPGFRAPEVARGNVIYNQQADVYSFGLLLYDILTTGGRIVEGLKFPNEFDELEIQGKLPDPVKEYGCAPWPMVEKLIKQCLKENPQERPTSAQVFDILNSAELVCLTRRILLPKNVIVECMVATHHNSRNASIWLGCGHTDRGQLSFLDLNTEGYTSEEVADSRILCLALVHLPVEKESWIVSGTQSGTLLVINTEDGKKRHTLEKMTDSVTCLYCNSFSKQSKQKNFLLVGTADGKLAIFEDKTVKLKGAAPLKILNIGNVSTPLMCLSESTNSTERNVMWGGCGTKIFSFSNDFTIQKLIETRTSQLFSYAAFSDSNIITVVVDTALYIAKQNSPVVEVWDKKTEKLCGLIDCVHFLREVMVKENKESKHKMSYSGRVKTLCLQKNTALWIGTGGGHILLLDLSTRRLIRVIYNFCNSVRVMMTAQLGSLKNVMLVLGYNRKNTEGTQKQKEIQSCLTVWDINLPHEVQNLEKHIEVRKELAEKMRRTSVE

| Structure (SMILES) | Dmax [1] [%] | DC50 [2] [nM] | further results |
| --- | --- | --- | --- |
| COc1c(N2CCC(O[C@H]3CC[C@H](CN4CCN(c5cc(-c6n[nH]c7cc(F)c(OC8(C)CC8)cc67)ncn5)CC4)CC3)CC2)ccc2c1CN(C1CCC(=O)NC1=O)C2=O (some centres unmarked) [Compound 280, 3-[4-methoxy-1-oxo-5-(4-{[(1r,4r)-4-[(4-{6-[6-fluoro-5-(1-methylcyclopropoxy)-1H-indazol-3-yl]pyrimidin-4-yl}piperazin-1-yl)methyl]cyclohexyl]oxy}piperidin-1-yl)-2,3-dihydro-1H-isoindol-2-yl]piperidine-2,6-dione] | 50 to 70 | < 10 |  |
| Cc1cc(-c2n[nH]c3ccc(OC4(C)CC4)cc23)cc(N2CCN(C[C@H]3CC[C@H](OC4CCN(c5ccc6c(c5F)CN(C5CCC(=O)NC5=O)C6=O)CC4)CC3)CC2)n1 (some centres unmarked) [Compound 379, 3-[4-fluoro-1-oxo-5-(4-{[(1r,4r)-4-[(4-{6-methyl-4-[5-(1-methylcyclopropoxy)-1H-indazol-3-yl]pyridin-2-yl}piperazin-1-yl)methyl]cyclohexyl]oxy}piperidin-1-yl)-2,3-dihydro-1H-isoindol-2-yl]piperidine-2,6-dione] |  |  | DC50 [3]: < 10 nM; Dmax [4]: 50 to 70% |
| CC1(Oc2ccc3n[nH]c(-c4cc(N5CCC(COC6CCN(C(=O)C7CCN(c8ccc9c(c8)C(=O)N(C8CCC(=O)NC8=O)C9=O)CC7)CC6)CC5)ncn4)c3c2)CC1 (centres unmarked) [Compound 62, 2-(2,6-dioxo-3-piperidyl)-5-[4-[4-[[1-[6-[5-(1-methylcyclopropoxy)-2H-indazol-3-yl]pyrimidin-4-yl]-4-piperidyl]methoxy]piperidine-1-carbonyl]-1-piperidyl]isoindoline-1,3-dione] |  |  | Dmax (endogenous HiBit-tagged LRRK2 in HEK293 cells, 24 hours, read-out: **Endogenous WT Dmax (%)): ≥ 70%; DC50 (endogenous HiBit-tagged LRRK2 in HEK293 cells, 24 hours, read-out: *Endogenous WT DC50): < 10 nM |
| COc1c(N2CCC(O[C@H]3CC[C@H](OC4CCN(c5cc(-c6n[nH]c7cnc(OC8(C)CC8)cc67)ncn5)CC4)CC3)CC2)ccc2c1CN(C1CCC(=O)NC1=O)C2=O (some centres unmarked) [Compound 380, 3-[4-methoxy-1-oxo-5-(4-{[(1r,4r)-4-[(1-{6-[5-(1-methylcyclopropoxy)-1H-pyrazolo[3,4-c]pyridin-3-yl]pyrimidin-4-yl}piperidin-4-yl)oxy]cyclohexyl]oxy}piperidin-1-yl)-2,3-dihydro-1H-isoindol-2-yl]piperidine-2,6-dione] |  |  | DC50 [3]: < 10 nM; Dmax [4]: 50 to 70% |
| CC1(Oc2ccc3n[nH]c(-c4cc(N5CCC(O[C@H]6C[C@H](N7CCC(c8ccc9c(c8F)CN(C8CCC(=O)NC8=O)C9=O)CC7)C6)CC5)ncn4)c3c2)CC1 (some centres unmarked) [Compound 290, 3-(4-fluoro-1-oxo-5-{1-[(1r,3r)-3-[(1-{6-[5-(1-methylcyclopropoxy)-2H-indazol-3-yl]pyrimidin-4-yl}piperidin-4-yl)oxy]cyclobutyl]piperidin-4-yl}-2,3-dihydro-1H-isoindol-2-yl)piperidine-2,6-dione] | ≥ 70 | < 10 |  |
| CC1(Oc2ccc3n[nH]c(-c4cc(N5CCC(CO[C@H]6C[C@H](N7CCC(c8ccc9c(c8F)CN(C8CCC(=O)NC8=O)C9=O)CC7)C6)CC5)ncn4)c3c2)CC1 (some centres unmarked) [Compound 292, 3-(4-fluoro-1-oxo-5-{1-[(1r,3r)-3-[(1-{6-[5-(1-methylcyclopropoxy)-2H-indazol-3-yl]pyrimidin-4-yl}piperidin-4-yl)methoxy]cyclobutyl]piperidin-4-yl}-2,3-dihydro-1H-isoindol-2-yl)piperidine-2,6-dione] | 50 to 70 | < 10 |  |
| CC1(Oc2ccc3[nH]nc(-c4cc(N5CCC(CN6CCN(CC7CCN(c8ccc9c(c8F)CN(C8CCC(=O)NC8=O)C9=O)CC7)CC6(C)C)CC5)ncn4)c3c2)CC1 (centres unmarked) [Compound 224, 3-[5-[4-[[3,3-dimethyl-4-[[1-[6-[5-(1-methylcyclopropoxy)-1H-indazol-3-yl]pyrimidin-4-yl]-4-piperidyl]methyl]piperazin-1-yl]methyl]-1-piperidyl]-4-fluoro-1-oxo-isoindolin-2-yl]piperidine-2,6-dione] |  |  | DC50 [3]: < 10 nM; Dmax [4]: 50 to 70% |
| CC1(Oc2ccc3n[nH]c(-c4cc(N5CCN(C[C@H]6CO[C@H](CN7CCN(c8ccc9c(c8F)CN(C8CCC(=O)NC8=O)C9=O)CC7)CO6)CC5)ncn4)c3c2)CC1 (some centres unmarked) [Compound 296, 3-[4-fluoro-5-(4-{[(2r,5s)-5-[(4-{6-[5-(1-methylcyclopropoxy)-2H-indazol-3-yl]pyrimidin-4-yl}piperazin-1-yl)methyl]-1,4-dioxan-2-yl]methyl}piperazin-1-yl)-1-oxo-2,3-dihydro-1H-isoindol-2-yl]piperidine-2,6-dione] | 50 to 70 | < 10 |  |
| CC1(Oc2ccc3n[nH]c(-c4cc(N5CC6(CCN([C@H]7C[C@H](OC8CCN(c9ccc%10c(c9F)CN(C9CCC(=O)NC9=O)C%10=O)CC8)C7)CC6)C5)ncn4)c3c2)CC1 (some centres unmarked) [Compound 304, 3-(4-fluoro-1-oxo-5-{4-[(1r,3r)-3-(2-{6-[5-(1-methylcyclopropoxy)-2H-indazol-3-yl]pyrimidin-4-yl}-2,7-diazaspiro[3.5]nonan-7-yl)cyclobutoxy]piperidin-1-yl}-2,3-dihydro-1H-isoindol-2-yl)piperidine-2,6-dione] | 50 to 70 | < 10 |  |
| CC1(Oc2ccc3[nH]nc(-c4cc(N5CCN(C[C@H]6CC[C@H](OC7CCN(c8ccc9c(c8Cl)CN(C8CCC(=O)NC8=O)C9=O)CC7)CC6)CC5)ncn4)c3c2)CC1 (some centres unmarked) [Compound 243, 3-[4-chloro-1-oxo-5-(4-{[(1r,4r)-4-[(4-{6-[5-(1-methylcyclopropoxy)-1H-indazol-3-yl]pyrimidin-4-yl}piperazin-1-yl)methyl]cyclohexyl]oxy}piperidin-1-yl)-2,3-dihydro-1H-isoindol-2-yl]piperidine-2,6-dione] |  |  | DC50 [3]: < 10 nM; Dmax [4]: 50 to 70% |
| CC1(Oc2cc3c(-c4cc(N5CCC(CN6CCN(CC7CCN(c8ccc9c(c8F)CN(C8CCC(=O)NC8=O)C9=O)CC7)CC6)CC5)ncn4)n[nH]c3cn2)CC1 (centres unmarked) [Compound 201, 3-(4-fluoro-5-(4-((4-((1-(6-(5-(1-methylcyclopropoxy)-1H-pyrazolo[3,4-c]pyridin-3-yl)pyrimidin-4-yl)piperidin-4-yl)methyl)piperazin-1-yl)methyl)piperidin-1-yl)-1-oxoisoindolin-2-yl)piperidine-2,6-dione] |  |  | Dmax (endogenous HiBit-tagged LRRK2, HEK293 cells, 24 hours, read-out: **Endogenous WT Dmax (%)): ≥ 70%; DC50 (endogenous HiBit-tagged LRRK2, HEK293 cells, 24 hours, read-out: *Endogenous WT DC50): < 10 nM |

Further lines, with some results ahead:

| Dmax [1] [%] | DC50 [2] [nM] | Structure (SMILES) | further results |
| --- | --- | --- | --- |
| 50 to 70 | < 10 | CC1(Oc2ccc3n[nH]c(-c4cc(N5CCC(O[C@H]6C[C@H](N7CC8(CCN(c9ccc%10c(c9F)CN(C9CCC(=O)NC9=O)C%10=O)CC8)C7)C6)CC5)ncn4)c3c2)CC1 (some centres unmarked) [Compound 335, 3-(4-fluoro-1-oxo-5-{2-[(1r,3r)-3-[(1-{6-[5-(1-methylcyclopropoxy)-2H-indazol-3-yl]pyrimidin-4-yl}piperidin-4-yl)oxy]cyclobutyl]-2,7-diazaspiro[3.5]nonan-7-yl}-2,3-dihydro-1H-isoindol-2-yl)piperidine-2,6-dione] |  |
| 50 to 70 | < 10 | COc1c(N2CCC(CN3CCN(C(C)(C)C4CCN(c5cc(-c6n[nH]c7ccc(OC8(C)CC8)cc67)ncn5)CC4)CC3)CC2)ccc2c1CN(C1CCC(=O)NC1=O)C2=O (centres unmarked) [Compound 331, 3-{4-methoxy-5-[4-({4-[2-(1-{6-[5-(1-methylcyclopropoxy)-1H-indazol-3-yl]pyrimidin-4-yl}piperidin-4-yl)propan-2-yl]piperazin-1-yl}methyl)piperidin-1-yl]-1-oxo-2,3-dihydro-1H-isoindol-2-yl}piperidine-2,6-dione] |  |
| 50 to 70 | < 10 | C[C@H]1CN(CC2CCN(CC3CCN(c4cc(-c5n[nH]c6ccc(OC7(C)CC7)cc56)ncn4)CC3)CC2)CCN1c1ccc2c(c1F)CN(C1CCC(=O)NC1=O)C2=O (stereo partly drawn) [Compound 339, 3-{4-fluoro-5-[(2S)-2-methyl-4-({1-[(1-{6-[5-(1-methylcyclopropoxy)-1H-indazol-3-yl]pyrimidin-4-yl}piperidin-4-yl)methyl]piperidin-4-yl}methyl)piperazin-1-yl]-1-oxo-2,3-dihydro-1H-isoindol-2-yl}piperidine-2,6-dione] |  |
| 50 to 70 | < 10 | COc1c(N2CCN(C[C@H]3CO[C@H](CN4CCN(c5cc(-c6n[nH]c7cnc(OC8(C)CC8)cc67)ncn5)CC4)CO3)CC2)ccc2c1CN(C1CCC(=O)NC1=O)C2=O (some centres unmarked) [Compound 302, 3-[4-methoxy-5-(4-{[(2s,5r)-5-[(4-{6-[5-(1-methylcyclopropoxy)-1H-pyrazolo[3,4-c]pyridin-3-yl]pyrimidin-4-yl}piperazin-1-yl)methyl]-1,4-dioxan-2-yl]methyl}piperazin-1-yl)-1-oxo-2,3-dihydro-1H-isoindol-2-yl]piperidine-2,6-dione] |  |
| 50 to 70 | < 10 | CC1(Oc2ccc3n[nH]c(-c4cc(N5CCC(O[C@H]6C[C@H](N7CCC8(CC7)CN(c7ccc9c(c7F)CN(C7CCC(=O)NC7=O)C9=O)C8)C6)CC5)ncn4)c3c2)CC1 (some centres unmarked) [Compound 323, 3-(4-fluoro-1-oxo-5-{7-[(1r,3r)-3-[(1-{6-[5-(1-methylcyclopropoxy)-2H-indazol-3-yl]pyrimidin-4-yl}piperidin-4-yl)oxy]cyclobutyl]-2,7-diazaspiro[3.5]nonan-2-yl}-2,3-dihydro-1H-isoindol-2-yl)piperidine-2,6-dione] |  |

From patent US12559506B2, “Indazole based compounds and associated methods of use” (Arvinas Operations, Inc., priority 2021, dated 2026)
